Experimental data: ChEMBL document CHEMBL2074016, “Comparative studies on in vitro methods for evaluating in vivo function of MDR1 P-glycoprotein” (Pharm Res, 2001)
Values belong to the compound of their own block, whether it stands above or below them.

Assays:
[1] = target: T1, ATP-dependent translocase ABCB1 (Homo sapiens, UniProt P08183); experiment: (§1) TP_TRANSPORTER: ATP hydrolysis in membrane fraction from High Five (BTI-TN5B1-4) cells; type: functional, cell membranes, BTI-TN-5B1-4; details: bti-tn-5b1-4
T1 sequence (P08183 whole entry): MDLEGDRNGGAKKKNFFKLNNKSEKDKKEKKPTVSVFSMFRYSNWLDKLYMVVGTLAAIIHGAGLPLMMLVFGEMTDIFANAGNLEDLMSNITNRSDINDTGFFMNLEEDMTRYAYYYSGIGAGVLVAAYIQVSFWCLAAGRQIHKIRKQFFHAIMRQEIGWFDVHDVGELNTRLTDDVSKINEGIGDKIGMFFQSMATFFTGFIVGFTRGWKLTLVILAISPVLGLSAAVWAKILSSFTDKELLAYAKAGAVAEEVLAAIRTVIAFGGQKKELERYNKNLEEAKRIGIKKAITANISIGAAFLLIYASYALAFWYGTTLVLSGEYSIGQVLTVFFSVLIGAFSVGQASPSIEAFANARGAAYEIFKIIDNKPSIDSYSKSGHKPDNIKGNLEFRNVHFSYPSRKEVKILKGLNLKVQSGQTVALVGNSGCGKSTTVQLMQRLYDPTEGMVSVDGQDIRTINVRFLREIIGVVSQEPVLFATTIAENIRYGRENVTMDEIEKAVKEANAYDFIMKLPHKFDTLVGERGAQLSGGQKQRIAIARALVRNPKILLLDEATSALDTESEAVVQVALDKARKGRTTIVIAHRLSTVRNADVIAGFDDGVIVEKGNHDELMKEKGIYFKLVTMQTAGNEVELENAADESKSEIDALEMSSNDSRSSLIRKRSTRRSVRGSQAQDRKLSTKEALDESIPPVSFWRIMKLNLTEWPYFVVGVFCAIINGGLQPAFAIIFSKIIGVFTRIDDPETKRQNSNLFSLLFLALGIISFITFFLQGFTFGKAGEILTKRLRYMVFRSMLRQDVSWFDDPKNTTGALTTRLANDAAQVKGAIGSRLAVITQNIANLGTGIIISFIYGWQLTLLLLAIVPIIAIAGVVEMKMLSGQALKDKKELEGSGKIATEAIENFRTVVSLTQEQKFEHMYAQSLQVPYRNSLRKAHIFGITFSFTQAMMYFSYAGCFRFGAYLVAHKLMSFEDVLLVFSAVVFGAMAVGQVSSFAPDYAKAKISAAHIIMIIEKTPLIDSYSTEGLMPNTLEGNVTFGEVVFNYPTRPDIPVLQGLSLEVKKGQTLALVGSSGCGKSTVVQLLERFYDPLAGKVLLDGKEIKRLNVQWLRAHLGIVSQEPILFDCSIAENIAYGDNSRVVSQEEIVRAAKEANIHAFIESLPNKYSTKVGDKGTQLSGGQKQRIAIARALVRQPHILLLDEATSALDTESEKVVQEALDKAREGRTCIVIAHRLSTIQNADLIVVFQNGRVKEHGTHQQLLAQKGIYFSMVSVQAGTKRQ

[2] = target: P-glycoprotein 1 and 3 (MDR1a/MDR1b) (Mus musculus, UniProt P21447+P06795); experiment: TP_TRANSPORTER: increase in brain concentration in mdr1a/1b(-/-) mouse; type: functional, organism-based; details: in vivo
[3] = target: T1, ATP-dependent translocase ABCB1; experiment: TP_TRANSPORTER: transepithelial transport (apical to basal) of Daunorubicin (Daunomycin) at a concentration of 200 nM in MDR1-expressing LLC-PK1 cells; type: functional, cell-based; details: pig, llc-pk1, 0.2 µM
[4] = target: T1, ATP-dependent translocase ABCB1; experiment: TP_TRANSPORTER: transepithelial transport (apical to basal) of Dexamethasone at a concentration of 24.7 nM in MDR1-expressing LLC-PK1 cells; type: functional, cell-based; details: pig, llc-pk1, 0.0247 µM
[5] = target: T1, ATP-dependent translocase ABCB1; experiment: TP_TRANSPORTER: transepithelial transport (apical to basal) of Digoxin at a concentration of 52.6 nM in MDR1-expressing LLC-PK1 cells; type: functional, cell-based; details: pig, llc-pk1, 0.0526 µM
[6] = target: ATP-dependent translocase ABCB1 (P-glycoprotein) (Homo sapiens, UniProt P08183); experiment: as §1; type: functional, cell membranes, BTI-TN-5B1-4; details: membrane fraction from High Five (BTI-TN5B1-4) cells
ATP-dependent translocase ABCB1 (P-glycoprotein), sequence (P08183 whole entry): as above

[7] = target: T1, ATP-dependent translocase ABCB1; experiment: TP_TRANSPORTER: transepithelial transport (apical to basal) of Loperamide at a concentration of 1 uM in MDR1-expressing LLC-PK1 cells; type: functional, cell-based; details: pig, llc-pk1, 1 µM
[8] = target: T1, ATP-dependent translocase ABCB1; experiment: TP_TRANSPORTER: transepithelial transport (apical to basal) of Progesterone at 7 nM in MDR1-expressing LLC-PK1 cells; type: functional, cell-based; details: pig, llc-pk1, 0.007 µM
[9] = target: T1, ATP-dependent translocase ABCB1; experiment: TP_TRANSPORTER: transepithelial transport (apical to basal) of Vinblastine at a concentration of 22.5 nM in MDR1-expressing LLC-PK1 cells; type: functional, cell-based; details: pig
[10] = system: CN1C(=O)CN=C(c2ccccc2)c2cc(Cl)ccc21; experiment: as §1; type: functional, cell membranes, BTI-TN-5B1-4

Compound: CN/C(=N/CCSCc1nc[nH]c1C)NC#N [CIMETIDINE]
Activity [1]: is not a substrate [-]

Activity [2]: substrate [+]
Activity [3]: substrate [+]
Compound: COc1cccc2c1C(=O)c1c(O)c3c(c(O)c1C2=O)C[C@@](O)(C(C)=O)C[C@@H]3O[C@H]1C[C@H](N)[C@H](O)[C@H](C)O1 [DAUNORUBICIN]

Activity [1]: is not a substrate [-]
Activity [4]: substrate [+]
Compound: C[C@@H]1C[C@H]2[C@@H]3CCC4=CC(=O)C=C[C@]4(C)[C@@]3(F)[C@@H](O)C[C@]2(C)[C@@]1(O)C(=O)CO [DEXAMETHASONE]

Activity [5]: substrate [+]
Compound: C[C@H]1O[C@@H](O[C@H]2[C@@H](O)C[C@H](O[C@H]3[C@@H](O)C[C@H](O[C@H]4CC[C@@]5(C)[C@H](CC[C@@H]6[C@@H]5C[C@@H](O)[C@]5(C)[C@@H](C7=CC(=O)OC7)CC[C@]65O)C4)O[C@@H]3C)O[C@@H]2C)C[C@H](O)[C@@H]1O [DIGOXIN]

Compound: C[C@]12CC[C@@H]3c4ccc(O)cc4CC[C@H]3[C@@H]1CC[C@@H]2O[C@@H]1O[C@H](C(=O)O)[C@@H](O)[C@H](O)[C@H]1O [ESTRADIOL 17B GLUCURONIDE]
Activity [1]: substrate [+]

Compound: CN(C)C(=O)C(CCN1CCC(O)(c2ccc(Cl)cc2)CC1)(c1ccccc1)c1ccccc1 [LOPERAMIDE]
Km [6]: 13.8 µM
Activity [7]: substrate [+]

Compound: CC(=O)[C@H]1CC[C@H]2[C@@H]3CCC4=CC(=O)CC[C@]4(C)[C@H]3CC[C@]12C [PROGESTERONE]
Activity [8]: is not a substrate [-]

Activity [9]: substrate [+]
Compound: CC[C@]1(O)C[C@@H]2CN(CCc3c([nH]c4ccccc34)[C@@](C(=O)OC)(c3cc4c(cc3OC)N(C)[C@H]3[C@@](O)(C(=O)OC)[C@H](OC(C)=O)[C@]5(CC)C=CCN6CC[C@]43[C@@H]65)C2)C1 [VINBLASTINE]

Compound: ATP-dependent translocase ABCB1 (Homo sapiens)
Km [10]: 72.4 µM
